Consider 16 molecules from ChEMBL document CHEMBL5500338, “Design, synthesis, and biological evaluation of piperazine derivatives as pan-PPARs agonists for the treatment of liver fibrosis” (Eur J Med Chem, 2024).

Common to all, as to type: cell-based
For experiment [1], the target named is T1, Peroxisome proliferator-activated receptor delta (Homo sapiens, UniProt Q03181).
T1 sequence (Q03181 whole entry): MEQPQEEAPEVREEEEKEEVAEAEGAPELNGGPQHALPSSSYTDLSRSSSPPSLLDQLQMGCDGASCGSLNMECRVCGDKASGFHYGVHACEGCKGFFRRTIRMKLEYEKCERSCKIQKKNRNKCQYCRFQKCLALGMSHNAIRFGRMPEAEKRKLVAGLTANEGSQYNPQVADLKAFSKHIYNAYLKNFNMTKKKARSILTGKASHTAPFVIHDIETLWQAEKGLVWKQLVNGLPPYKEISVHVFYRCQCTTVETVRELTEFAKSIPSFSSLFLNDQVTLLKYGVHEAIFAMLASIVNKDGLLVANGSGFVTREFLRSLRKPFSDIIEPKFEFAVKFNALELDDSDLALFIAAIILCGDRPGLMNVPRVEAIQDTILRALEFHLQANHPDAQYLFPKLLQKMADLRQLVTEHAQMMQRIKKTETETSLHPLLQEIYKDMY
Kind of experiment: Agonist activity at human PPARdelta transfected in African green monkey COS-7 cells co-transfected with pGL4.35 and pBIND reporter gene plasmid assessed as receptor transactivation incubated for 16 hrs by luciferase reporter gene assay. (A reporter such as luciferase makes a cellular process visible.)

The target in experiment [2] is T2, Peroxisome proliferator-activated receptor gamma (Homo sapiens, UniProt P37231).
T2 sequence (P37231 whole entry): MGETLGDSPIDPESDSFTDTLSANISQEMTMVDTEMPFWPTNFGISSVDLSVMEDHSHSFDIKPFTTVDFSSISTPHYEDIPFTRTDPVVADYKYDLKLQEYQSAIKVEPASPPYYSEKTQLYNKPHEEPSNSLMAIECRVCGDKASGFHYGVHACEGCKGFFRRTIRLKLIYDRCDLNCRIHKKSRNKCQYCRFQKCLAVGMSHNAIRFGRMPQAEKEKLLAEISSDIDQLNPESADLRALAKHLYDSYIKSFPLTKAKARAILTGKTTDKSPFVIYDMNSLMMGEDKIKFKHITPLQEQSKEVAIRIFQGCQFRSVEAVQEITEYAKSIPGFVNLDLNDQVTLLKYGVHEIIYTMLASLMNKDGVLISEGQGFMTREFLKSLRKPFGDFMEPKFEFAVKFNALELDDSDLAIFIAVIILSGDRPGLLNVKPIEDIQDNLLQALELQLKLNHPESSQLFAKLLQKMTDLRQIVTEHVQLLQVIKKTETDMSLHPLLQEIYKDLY
Kind of experiment: Agonist activity at human PPARgamma transfected in African green monkey COS-7 cells co-transfected with pGL4.35 and pBIND reporter gene plasmid assessed as receptor transactivation incubated for 16 hrs by luciferase reporter gene assay.

For experiment [3], the target named is T3, Peroxisome proliferator-activated receptor alpha (Homo sapiens, UniProt Q07869).
T3 sequence (Q07869 whole entry): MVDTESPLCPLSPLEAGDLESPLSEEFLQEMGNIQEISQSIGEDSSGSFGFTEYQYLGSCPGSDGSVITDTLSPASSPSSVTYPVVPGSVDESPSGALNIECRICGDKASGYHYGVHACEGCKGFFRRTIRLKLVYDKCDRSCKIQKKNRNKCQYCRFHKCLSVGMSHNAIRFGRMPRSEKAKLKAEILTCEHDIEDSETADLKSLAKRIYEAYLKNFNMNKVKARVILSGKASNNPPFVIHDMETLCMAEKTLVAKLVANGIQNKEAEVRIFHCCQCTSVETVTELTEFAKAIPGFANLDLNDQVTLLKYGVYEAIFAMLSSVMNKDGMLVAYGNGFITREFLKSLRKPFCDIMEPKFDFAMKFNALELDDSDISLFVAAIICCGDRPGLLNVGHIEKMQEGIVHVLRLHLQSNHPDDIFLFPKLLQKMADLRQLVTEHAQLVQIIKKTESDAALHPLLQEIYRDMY
Kind of experiment: Agonist activity at human PPARalpha transfected in African green monkey COS-7 cells co-transfected with pGL4.35 and pBIND reporter gene plasmid assessed as receptor transactivation incubated for 16 hrs by luciferase reporter gene assay.

The term EC50 denotes the concentration giving half of the maximal effect. Consider `Cc1cc(CN2CCN(c3ccccn3)CC2)cc(C)c1OC(C)(C)C(=O)O`, for which the half-maximal effective concentration (EC50) in experiment [1] was above 10 µM. On to `Cc1cc(CN2CCN(c3ccc(C(F)(F)F)nc3)CC2)cc(C)c1OC(C)(C)C(=O)O`, for which, in experiment [2], the EC50 was above 10 µM. As for `Cc1cc(CN2CCN(c3ccc(C(F)(F)F)cc3)CC2)cc(C)c1OC(C)(C)C(=O)O`, the results for the concentration for a half-maximal effect (EC50) in experiment [2] and in experiment [1] were above 10 µM and 0.8 µM, respectively. With `CC(C)(Oc1ccc(CCNC(=O)c2ccc(Cl)cc2)cc1)C(=O)O` [BEZAFIBRATE], the results for the EC50 in experiment [2] and in experiment [1] were 13.2 µM and 49.7 µM, respectively.

With `Cc1cc(CN2CCN(Cc3ccc(C(F)(F)F)nc3)CC2)cc(C)c1OC(C)(C)C(=O)O`, in experiment [2], the concentration giving a half-maximal response (EC50) is above 10 µM. Take `O=C(O)CCCc1cc2cc(Cl)ccc2n1S(=O)(=O)c1ccc2ncsc2c1` [LANIFIBRANOR]: the EC50 in experiment [2] was found to be 0.6 µM; in experiment [3], 3.2 µM; in experiment [1] it was 2.9 µM.

With `Cc1c(CN2CCN(c3ccc(C(F)(F)F)cc3)CC2)ccc(OC(C)(C)C(=O)O)c1C`, the concentration giving a half-maximal response (EC50) in experiment [2] is above 10 µM.

With `Cc1cc(CN2CCN(c3ncccc3C(F)(F)F)CC2)cc(C)c1OC(C)(C)C(=O)O`, the half-maximal effective concentration (EC50) in experiment [1] was above 10 µM. Still for that read-out and setting: the figure for `Cc1cc(CN2CCN(c3ncc(C(F)(F)F)cn3)CC2)cc(C)c1OC(C)(C)C(=O)O` is 0.8 µM; for `Cc1ccc(N2CCN(Cc3cc(C)c(OC(C)(C)C(=O)O)c(C)c3)CC2)nc1` it is above 10 µM. Turning to `Cc1cc(CN2CCN(c3ccc(F)cn3)CC2)cc(C)c1OC(C)(C)C(=O)O`, the EC50 is 7.2 µM in experiment [2] and above 10 µM in experiment [1].

Take `Cc1cc(CN2CCN(c3cnc(C(F)(F)F)nc3)CC2)cc(C)c1OC(C)(C)C(=O)O`: the 50% effective concentration (EC50) is above 10 µM in experiment [2] and 3.2 µM in experiment [1]. The like results for `CC(C)(Oc1ccc(CN2CCN(c3ccc(C(F)(F)F)cc3)CC2)cc1)C(=O)O` were, in that order, above 10 µM and 4.4 µM. For the molecule `Cc1cc(CN2CCN(Cc3ccc(C(F)(F)F)cn3)CC2)cc(C)c1OC(C)(C)C(=O)O`, the results for the 50% effective concentration (EC50) in experiment [2] and in experiment [1] were 8.6 µM and 2 µM, respectively. `Cc1cc(CN2CCN(c3ccc(C(F)(F)F)cc3)CC2)ccc1OC(C)(C)C(=O)O`: the concentration giving a half-maximal response (EC50) in experiment [2] was above 10 µM.

Take `Cc1cc(OC(C)(C)C(=O)O)ccc1CN1CCN(c2ccc(C(F)(F)F)cc2)CC1`: the EC50 in experiment [3] was above 10 µM.
